Results taken from the Kinase Knowledgebase extract (Sharma et al. 2016).
pIC50: −log10 of the molar value.

Tests used:
MAPK14 (human) [1] = molecular target: MAPK14 (human) (UniProt Q16539); assay: Inhibition of TNF-alpha Release in THP-1 Cell; details: thp1
MAPK14 (human) [2] = molecular target: MAPK14 (human) (UniProt Q16539); assay: Inhibition of p38 MAP Kinase in Whole Blood
MAPK14 (mouse) = assay: Inhibition of MAPK14 Kinase Activity

MAPK14 (human), sequence (Q16539 whole entry, looked up): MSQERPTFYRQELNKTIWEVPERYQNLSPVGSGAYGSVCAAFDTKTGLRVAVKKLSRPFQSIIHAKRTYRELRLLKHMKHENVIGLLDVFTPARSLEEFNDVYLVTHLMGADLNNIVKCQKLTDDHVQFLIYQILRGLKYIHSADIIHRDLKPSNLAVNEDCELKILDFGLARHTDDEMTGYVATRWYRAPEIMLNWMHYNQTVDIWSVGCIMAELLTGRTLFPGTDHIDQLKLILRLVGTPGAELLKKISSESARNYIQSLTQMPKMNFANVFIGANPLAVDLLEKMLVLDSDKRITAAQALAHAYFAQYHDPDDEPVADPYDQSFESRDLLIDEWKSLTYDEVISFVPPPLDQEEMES

Row | SMILES | pIC50 (MAPK14 (human) [1]) | pIC50 (MAPK14 (human) [2]) | pIC50 (MAPK14 (mouse))
1 | CC1CN(c2cc3c(nc2Sc2ccc(F)cc2F)CNC(=O)N3c2c(Cl)cccc2Cl)CC(C)O1 (centres undefined) | 7.60 | 7.14 | –
2 | O=C1NCc2nc(Sc3ccc(F)cc3F)c(N3CC4CCC3C4)cc2N1c1c(Cl)cccc1Cl (centres undefined) | 6.30 | – | –
3 | O=C1NCc2nc(Sc3ccc(F)cc3F)c(N3CC4CC3CN4C3CC3)cc2N1c1c(Cl)cccc1Cl (centres undefined) | 8.09 | 6.66 | –
4 | O=C1NCc2nc(Sc3ccc(F)cc3F)c(N3CCN(CCN4CCCC4)CC3)cc2N1c1c(Cl)cccc1Cl | 8.70 | 8.05 | –
5 | CC(C)N1CC2CC1CN2c1cc2c(nc1Sc1ccc(F)cc1F)CNC(=O)N2c1c(Cl)cccc1Cl (centres undefined) | 8.80 | 7.19 | –
6 | O=C1NCc2nc(Sc3ccc(F)cc3F)c(N3CCOCC3)cc2N1c1c(Cl)cccc1Cl | 7.66 | 6.40 | –
7 | O=C1NCc2nc(Sc3ccc(F)cc3F)c(NC3CCNCC3)cc2N1c1c(Cl)cccc1Cl | 8.05 | 7.77 | –
8 | O=C1NCc2nc(Sc3ccc(F)cc3F)c(N3CC4CC3CN4)cc2N1c1c(Cl)cccc1Cl (centres undefined) | 8.82 | 7.95 | –
9 | CC(C)N1CCN(c2cc3c(nc2Sc2ccc(F)cc2F)CNC(=O)N3c2c(Cl)cccc2Cl)CC1 | – | 6.77 | –
10 | CN(C)CCN1CCN(c2cc3c(nc2Sc2ccc(F)cc2F)CNC(=O)N3c2c(Cl)cccc2Cl)CC1 | 9.15 | 7.85 | –
11 | O=C1NCc2nc(Sc3ccc(F)cc3F)c(N3CC4CC3CN4CC3CC3)cc2N1c1c(Cl)cccc1Cl (centres undefined) | 8.92 | 7.29 | –
12 | CCN1CC2CC1CN2c1cc2c(nc1Sc1ccc(F)cc1F)CNC(=O)N2c1c(Cl)cccc1Cl (centres undefined) | 8.89 | 7.38 | –
13 | O=C1NCc2nc(Sc3ccc(F)cc3F)c(OC3CCNCC3)cc2N1c1c(Cl)cccc1Cl | – | 7.20 | –
14 | O=C1NCc2nc(Sc3ccc(F)cc3F)c(N3CCC(CCN4CCCC4)CC3)cc2N1c1c(Cl)cccc1Cl | 8.14 | 6.03 | –
15 | O=C1NCc2nc(Sc3ccc(F)cc3F)c(N3CCNCC3)cc2N1c1c(Cl)cccc1Cl | 8.30 | 7.70 | –
16 | O=c1ncc2nc(Sc3ccc(F)cc3F)ccc2n1-c1c(Cl)cccc1Cl | – | – | 6.22
17 | O=C1NCc2nc(Sc3ccc(F)cc3F)c(N3CCCCC3)cc2N1c1c(Cl)cccc1Cl | 6.30 | – | –
